Measurements from a compilation of properties of binary mixtures (doi:10.1039/c5cp04050g).

Assay: xn = mol fraction of the nth substance listed
Conditions: 100 kPa

CCCC[n+]1ccn(C)c1.[Cl-] + NCCO
viscosity [mPa·s]
Conditions	293 K	298 K	303 K	303.1 K	313.1 K	323.1 K	333.1 K	333.2 K	343.2 K
x2 = 0	–	19	–	15.2	9.93	6.88	–	5.03	3.69
x2 = 0.5	–	134	–	–	–	36.7	–	–	17.9
x2 = 0.677	–	47.4	–	–	–	16.6	–	12	9.1
x2 = 0.8	36.2	28.1	22.4	–	14.9	10.5	7.41	–	5.58
